# Reference: publication PMC5665762, “Phase 1 study of veliparib with carboplatin and weekly paclitaxel in Japanese patients with newly diagnosed ovarian cancer” (Cancer Science, 2017)
# Assays:
# [1] = system: Japanese patients with newly diagnosed ovarian cancer; assay: Phase 1 safety/tolerability: treatment-emergent adverse events, DLT, MTD, RP2D
# Method: This was a phase 1, open‐label, multicenter, dose‐escalation study to evaluate the tolerability, safety, PK and preliminary efficacy of oral veliparib in combination with carboplatin and weekly paclitaxel in Japanese patients with ovarian cancer. Patients were assigned to treatment with veliparib at either 100 mg (dose level 1 [DL1]) or 150 mg (DL2) b.i.d. on days 1–21 of a 21‐day cycle. […] After completion of cycle 1, subsequent cycles were not begun until the patient's ANC was ≥1500/mm^3 and the platelet count ≥100 000/mm^3. Patients with ANC 1000–1499/mm^3 or platelet count 75 000–99 000/mm^3 (or both) could proceed to the next cycle of therapy with a predefined dose modification (Table S1). On day 8 or 15 of each cycle, another dose modification guideline was applied (Table S2). The patient's participation in the study was discontinued upon the third occurrence of hematologic toxicity that required dose modification per protocol. Treatment could be postponed for up to 21 days because of toxicity; longer toxicity‐related delay led to study discontinuation. Reduction of carboplatin and paclitaxel doses was permitted based on the toxicity observed (Table S3), which could necessitate discontinuation of either agent. At the investigator's discretion, patients who discontinued veliparib were […] to discontinue the study but could continue to receive carboplatin and paclitaxel as standard of care. The trial was conducted in accordance with good clinical practice, the International Conference on Harmonization guidelines, and the 1964 Declaration of Helsinki and its later amendments; written informed consent was obtained from all patients before study enrollment.
# Dose escalation proceeded according to a 3 + 3 design to determine dose‐limiting toxicities (DLT), the maximum tolerated dose (MTD) and the RP2D. A minimum of 3 patients were enrolled at DL1. If none of these patients experienced a DLT, 3 more patients would be enrolled at DL2. If 1 or 2 patients experienced a DLT at DL1, 3 more patients would be enrolled at the same dose level. If ≤2 of 6 patients experienced a DLT, dose escalation would proceed to DL2. If ≥3 patients experienced a DLT, dose escalation would be stopped, with the following exceptions: (i) if 3 of 6 patients at DL1 experienced DLT, 3 more patients would enter the DL and the cohort be expanded to 9 patients, depending on a review of the specific DLT observed and discussion with the investigators; and (ii) if 3 of 9 patients at DL1 experienced DLT, escalation to DL2 would proceed, but if >3 of 9 patients experienced DLT, then dose escalation would stop.
# Dose‐limiting toxicities were determined based on events that occurred during the DLT evaluation period from day 1 of cycle 1 through pre‐dosing on day 1 of cycle 2. A patient was considered to be evaluable for DLT assessment if they had completed cycle 1 with the assigned regimen or had prematurely discontinued cycle 1 or experienced an adverse event (AE) related to veliparib. AE that occurred after the DLT evaluation period were considered in dose‐escalation decisions and tolerability assessment. The MTD was defined as the highest dose level at which ≤2 of 6 or ≤3 of 9 patients experienced a DLT. The RP2D was determined on the basis of assessment of the observed toxicities, the MTD, the overall safety profile of the regimen, and the PK of veliparib. In the event that the MTD was not reached, the RP2D was to be defined on the basis of safety and PK data and would not be higher than the maximum administered dose. Any of the following events that were considered to have a reasonable possibility of being related to the administration of veliparib were defined as DLT: grade 4 neutropenia lasting more than 7 days; grade 4 thrombocytopenia; febrile neutropenia; any grade ≥3 nonhematologic toxicities except nausea, vomiting and diarrhea; and transient metabolic toxicities such as glucose changes, hypokalemia or hypophosphatemia.
# [2] = system: non‐small cell lung cancer; parameters: method as in PMID 26433581; details: veliparib with carboplatin/paclitaxel, Japanese NSCLC patients, no more than 1 prior line of treatment; cited from earlier work
# [3] = system: target lesions, ovarian cancer; assay: Tumor response by RECIST version 1.1; assay type: in vivo, Japanese patients
# Method: (§1) During the screening visit, a complete medical history (including a detailed oncology history) was collected. Study visits occurred on days 1, 8 and 15 of cycle 1 and each subsequent cycle; patients also attended for a final visit and a 30‐day follow‐up visit. AE monitoring was performed at each visit; most visits also included a physical examination and ECOG performance status evaluation. Toxicities were graded according to the NCI Common Terminology Criteria for Adverse Events version 4.03. For the determination of veliparib, carboplatin and paclitaxel PK, plasma samples were collected at multiple time points within 24 h of the first morning dose of veliparib on day 1 of cycle 1. The PK of carboplatin and paclitaxel were evaluated only with veliparib co‐administration. Values of the PK parameters of veliparib, carboplatin and paclitaxel, including the maximum observed plasma concentration (C max), time to C max (T max) and AUC, were determined by using noncompartmental methods. In addition to tumor assessment at baseline, tumor response was assessed by using the Response Evaluation Criteria In Solid Tumors (RECIST) version 1.113 every 9 weeks from day 1 of cycle 1 and at the final visit. The tumor marker cancer antigen 125 (CA‐125) was evaluated on day 1 of each cycle and at the final visit.
# [4] = Plasma pharmacokinetics on day 1 of cycle 1 (noncompartmental); parameters: AUC(0-inf): dose or concentration left out as unconfirmed
# Method: as §1
# CA‐125 = assay: Tumor marker CA-125 response (Gynecologic Cancer InterGroup definition); assay type: in vivo, Japanese patients
# Method: as §1
# [5] = Total (both veliparib doses) + carboplatin/paclitaxel, N = 9, All grades
# [6] = Total (both veliparib doses) + carboplatin/paclitaxel, N = 9, Grade 3 or 4
# [7] = all 9 patients, regardless of relation to veliparib
# [8] = veliparib 100 mg BID + carboplatin/paclitaxel, n = 3, All grades
# [9] = veliparib 150 mg BID + carboplatin/paclitaxel, n = 6, All grades
# [10] = veliparib dose 100 mg, day 1 of cycle 1, N 3, mean ± SD
# [11] = veliparib dose 150 mg, day 1 of cycle 1, N 6, mean ± SD
smiles,measurement,setting,value
C[C@]1(c2nc3c(C(N)=O)cccc3[nH]2)CCCN1 [Veliparib],"Nail disorder, TEAE",[1]; [5],2 (22) n (%)
same,"Nausea, TEAE",[1]; [5],6 (67) n (%)
same,"Neutropenia (including neutrophil count decreased), TEAE",[1]; [5],9 (100) n (%)
same,"Peripheral sensory neuropathy (including neuropathy peripheral), TEAE",[1]; [5],7 (78) n (%)
same,"Rash, TEAE",[1]; [5],2 (22) n (%)
same,"Stomatitis, TEAE",[1]; [5],2 (22) n (%)
same,"Thrombocytopenia (including platelet count decreased), TEAE",[1]; [5],5 (56) n (%)
same,"Vomiting, TEAE",[1]; [5],4 (44) n (%)
same,"Alopecia, TEAE",[1]; [6],0 n (%)
same,"Anemia, TEAE",[1]; [6],5 (56) n (%)
same,"Any AE, TEAE",[1]; [6],7 (78) n (%)
same,"Arthralgia, TEAE",[1]; [6],0 n (%)
same,"Constipation, TEAE",[1]; [6],0 n (%)
same,"Decreased appetite, TEAE",[1]; [6],0 n (%)
same,"Dry skin, TEAE",[1]; [6],0 n (%)
same,"Dysgeusia, TEAE",[1]; [6],0 n (%)
same,"Leukopenia (including white blood cell count decreased), TEAE",[1]; [6],4 (44) n (%)
same,"Malaise, TEAE",[1]; [6],0 n (%)
same,"Nail disorder, TEAE",[1]; [6],0 n (%)
same,"Nasopharyngitis, TEAE",[1]; [6],0 n (%)
same,"Nausea, TEAE",[1]; [6],0 n (%)
same,"Neutropenia (including neutrophil count decreased), TEAE",[1]; [6],7 (78) n (%)
same,"Peripheral sensory neuropathy (including neuropathy peripheral), TEAE",[1]; [6],0 n (%)
same,"Rash, TEAE",[1]; [6],0 n (%)
same,"Stomatitis, TEAE",[1]; [6],0 n (%)
same,"Vomiting, TEAE",[1]; [6],0 n (%)
same,AE that led to death,[1]; all 9 patients,no AE that led to death
same,"alopecia, TEAE of any grade",[1]; [7],89%
same,"anemia, TEAE of any grade",[1]; [7],67%
same,"anemia, grade 3 or 4 TEAE",[1]; [7],56%
same,"malaise, TEAE of any grade",[1]; [7],67%
same,"nausea, TEAE of any grade",[1]; [7],67%
same,"neutropenia, TEAE of any grade",[1]; [7],100%
same,"neutropenia, grade 3 or 4 TEAE","[1]; female, human, in vivo",78%
same,"peripheral sensory neuropathy, TEAE of any grade","[1]; female, human, in vivo",78%
same,recommended phase 2 dose (RP2D),"[1]; in combination with carboplatin and weekly paclitaxel, determined on safety and PK data",150 mg b.i.d.
same,dose‐limiting toxicities (DLT),[1]; in vivo,No DLT were observed at any dose level
same,veliparib dose reduction,[1]; in vivo,No patient needed a veliparib dose reduction
same,veliparib discontinued because of a TEAE,"[1]; overall, 6 of 9 patients",67%
same,"Alopecia, TEAE",[1]; [8],3 (100) n (%)
same,"Anemia, TEAE",[1]; [8],2 (67) n (%)
same,"Alopecia, TEAE",[1]; [9],5 (83) n (%)
same,"Anemia, TEAE",[1]; [9],4 (67) n (%)
same,maximum tolerated dose (MTD) of the regimen,[1]; veliparib up to 150 mg b.i.d. with carboplatin and weekly paclitaxel,not reached
same,objective response rate,[2],55%
same,objective response rate,"[3]; 5 assessed patients, veliparib plus carboplatin and paclitaxel",100%
same,partial response,"[3]; both cohorts, of 5 assessed patients",4 patients
same,median best percentage change from baseline in the sum of target lesions,"[3]; overall, range −100.00% to −50.00%",−53.51%
same,partial response,[3]; veliparib 100 mg b.i.d.,1 patients
same,complete response,"[3]; veliparib 100 mg b.i.d. cohort, of 5 assessed patients",One patient had a complete response
same,median best percentage change from baseline in the sum of target lesions,"[3]; veliparib 100 mg b.i.d. cohort, range −100.00% to −53.51%",−76.75%
same,partial response,[3]; veliparib 150 mg b.i.d.,3 patients
same,median best percentage change from baseline in the sum of target lesions,"[3]; veliparib 150 mg b.i.d. cohort, range −90.29% to −50.00%",−51.57%
same,PK interaction between veliparib and carboplatin or paclitaxel,[4]; cross‐study comparison,no PK interaction
same,AUC0–8/dose,[4]; [10],37.2 ± 4.37 ng·h/mL/mg
same,C max/dose,[4]; [10],9.73 ± 1.63 ng/mL/mg
same,AUC0–8/dose,[4]; [11],36.7 ± 8.10 ng·h/mL/mg
same,C max/dose,[4]; [11],7.19 ± 1.16 ng/mL/mg
same,CA‐125 response (Gynecologic Cancer InterGroup definition),CA‐125; 8 of 9 patients,89%
same,median best percentage change from baseline in CA‐125,"CA‐125; overall, range −99.79% to −34.96%",−89.33%
same,median best percentage change from baseline in CA‐125,"CA‐125; veliparib 100 mg b.i.d. cohort, range −97.31% to −65.25%",−94.24%
same,median best percentage change from baseline in CA‐125,"CA‐125; veliparib 150 mg b.i.d. cohort, range −99.79% to −34.96%",−84.87%
CC(=O)O[C@H]1C(=O)[C@@]2(C)[C@H]([C@H](OC(=O)c3ccccc3)[C@]3(O)C[C@H](OC(=O)[C@H](O)[C@@H](NC(=O)c4ccccc4)c4ccccc4)C(C)=C1C3(C)C)[C@]1(OC(C)=O)CO[C@@H]1C[C@@H]2O [paclitaxel],AUC(0-inf),"[4]; female, human, in vivo",5320 ng·h/mL
same,Cmax,"[4]; female, human, in vivo",3300 ng/mL
N.N.O=C([O-])C1(C(=O)[O-])CCC1.[Pt+2] [carboplatin],patients needing ≥1 carboplatin dose reduction,"[1]; 7 of 9, beginning at cycle 2, due to hematologic toxicities",78%
same,C max,"[4]; carboplatin measured as total platinum, AUC 6 mg/mL•min i.v. day 1 with veliparib, mean (SD)",23.3 (4.28) μg/mL
same,AUC from time zero to infinity (AUC∞),"[4]; carboplatin measured as total platinum, i.v. day 1 with veliparib, mean (SD)",5.30 (0.491) mg•min/mL
